Assay results from patent US20050070594A1, “Use of angiotensin II receptor antagonists” (Boehringer Ingelheim International GmbH, priority 2003, published 2005).
Structures can show the parent of a compound that is named as a salt.

Tests used:
[1] = target: T1, human PPARgamma-ligand binding domain (LBD) (Homo sapiens, UniProt P37231); assay: AlphaScreen: recruiting of biotinylated LXXLL peptide of cofactor CBP to GST-PPARgamma-LBD; format: biochemical; settings: concentrations of up to 50 μM
T1 construct: codes for the amino acids 205-505 of the human PPARgamma2 transcription factor; made in house; host or cells: E. coli BL21(DE3), vector pGEX-4T-1
T1 sequence (P37231 205-505): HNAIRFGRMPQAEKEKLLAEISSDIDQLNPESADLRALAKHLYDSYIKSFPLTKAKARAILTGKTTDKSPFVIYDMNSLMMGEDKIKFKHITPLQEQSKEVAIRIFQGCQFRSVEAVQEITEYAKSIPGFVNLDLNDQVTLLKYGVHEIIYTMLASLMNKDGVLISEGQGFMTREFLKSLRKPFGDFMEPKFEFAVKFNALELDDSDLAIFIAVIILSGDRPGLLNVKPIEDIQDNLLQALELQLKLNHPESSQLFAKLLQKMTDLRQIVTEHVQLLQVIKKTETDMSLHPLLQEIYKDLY
Description: Protein containing the human PPARgamma-ligand binding domain (LBD) is prepared as a GST fusion protein in E.coli and purified by affinity chromatography. […] The fusion protein is expressed in the E.coli strain BL21(DE3) recommended for pGEX vectors after induction with 0.2 mM IPTG for 4 hours at 25° C. The bacteria are pelleted after the induction and frozen in batches in PBS, pH 7.4. After opening up in a French Press, the dissolved GST-PPARgamma-LBD-fusion protein is purified using a GSTrap column (Pharmacia). Elution is carried out by the addition of 20 mM reduced glutathione.
The GST-PPARgamma-LBD-protein fractions are desalinated using a HiTrap desalting column (Pharmacia) and the protein concentration is determined using a standard assay.
The assay buffer consists of 25 mM Hepes pH7.4, 100 mM NaCl,1 mM DTT, 0.1% Tween-20, 0.1% BSA. […] The final DMSO concentration in the assay is 1% (v/v). A 1% DMSO solution is used as the background control (NSB). The measurement is done using a Packard fusion measuring device.

[2] = target: T2, human PPARgamma-ligand binding domain (LBD) (Homo sapiens, UniProt P37231); assay: SPA assay: displacement of 3H-labelled rosiglitazone from GST-PPARgamma-LBD; settings: NSB 217, Bmax 911
T2 sequence (P37231 205-505): T1 sequence (P37231 205-505)
T2 sequence (P19793 220-461 partner limits assumed): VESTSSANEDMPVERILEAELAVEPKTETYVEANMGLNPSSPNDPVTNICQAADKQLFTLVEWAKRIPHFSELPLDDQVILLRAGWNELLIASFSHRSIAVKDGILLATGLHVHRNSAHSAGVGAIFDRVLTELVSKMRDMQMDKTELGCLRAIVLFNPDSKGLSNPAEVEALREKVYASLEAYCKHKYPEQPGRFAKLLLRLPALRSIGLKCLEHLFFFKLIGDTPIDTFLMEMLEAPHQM
Description: Protein containing the human PPARgamma-ligand binding domain (LBD) is prepared as a GST fusion protein in E.coli and purified by affinity chromatography. To do this, a DNA section which codes for the amino acids 205-505 of the human PPARgamma2 transcription factor (cf. Genbank entry U79012) is subcloned via the additionally introduced restriction cutting sites BamH I and Xho I into the expression vector pGEX-4T-1 (Amersham) and the sequence of the section is monitored. […] The bacteria are pelleted after the induction and frozen in batches in PBS, pH 7.4. After opening up in a French Press, the dissolved GST-PPARgamma-LBD-fusion protein is purified using a GSTrap column (Pharmacia). Elution is carried out by the addition of 20 mM reduced glutathione. The GST-PPARgamma-LBD-protein fractions are desalinated using a HiTrap desalting column (Pharmacia) and the protein concentration is determined using a standard assay. Protein containing the human RXRalpha ligand binding domain (LBD) is prepared as a His tag fusion protein in E.coli and purified by affinity chromatography. To do this a DNA section which codes for the amino acids 220-461 of the human RXRalpha transcription factor (cf. Genbank entry NM_002957, nt 729-1457) is subcloned via the additionally introduced restriction cutting sites BamH I and Not I into the expression vector pET28c (Novagen) and the sequence of the section is monitored. […] The bacteria are pelleted after the expression and frozen in batches in PBS, pH 7.4. After opening up in a French Press, the dissolved His-RXRalpha-LBD-fusion protein is purified using a HiTrap chelating column (Pharmacia). Elution is carried out using a 500 mM imidazole step. The His-RXRalpha-LBD protein fractions are desalinated using a HiTrap desalting column (Pharmacia) and the protein concentration is determined using a standard assay. A description of the SPA assay format can be found in Mukheriee R et al., J Steroid Biochem Mol Biol (2002) 81:217-225.

[3] = target: T3, ligand binding domain of the human PPARgamma2 transcription factor (Gal4 DNA binding domain fusion) (Homo sapiens, UniProt P37231); assay: Luciferase activity in stably transformed PPARgamma reporter cell line (CHO-K1 clone 11); format: cell-based; settings: 24 hours
T3 construct: codes for amino acids 205-505 of the human PPARgamma2 transcription factor; expressed in transfected cells
T3 sequence (P37231 205-505): T1 sequence (P37231 205-505)
Description: The resulting plasmid pFA-CMV/hPPARgamma2-LBD codes N-terminally of the PPARgamma-LBD in the same reading frame for a Gal4 DNA binding domain. In addition the plasmid codes for a neomycin resistance.
The cell line CHO-K1 (ATCC CCL-61) is cotransfected with the plasmids pFA-CMV/hPPARgamma2-LBD and pFR-Luc (Stratagene). pFR-Luc codes for the luciferase gene under the control of a five-times repeated yeast Gal4 binding site. The transfection is carried out with lipofectamine2000 in accordance with the manufacturer's instructions.
After six days' cultivation the cells are passaged and kept in culture for another 10 days. The resulting neomycin-resistant colonies are picked out under the microscope and transferred into 96 well-dishes and cultured.
The test substances are brought to 100 times the desired concentration with a suitable solvent, e.g. DMSO, and diluted 1:100 with the medium placed in the cell culture plate. The solvent used, e.g. DMSO, is used as the background control in the same concentration.
Luminescence is measured after a five minute wait using a Packard TopCount NXT. The luciferase activity is obtained by integrating the relative luciferase units (RLU) of the first ten seconds after the start of measurement.

[4] = animal model; cited from earlier work
[5] = test system: Adipose Protein 2 (aP2) expression; assay: Stimulation of aP2 expression in 3T3-L1 cells (real time PCR); format: cell-based, mouse; settings: 10 μmol/L
From the text: 3T3-L1 mouse preadipocytes are cultivated in DMEM (Dulbecco's modified eagle medium) with 10% foetal calf serum (FBS). PC12W cells are cultivated in DMEM with 5% FBS and 10% equine serum. In both cases the media contain 1% penicillin/streptomycin.
The differentiation of adipocytes is induced 2-3 days after cell confluence by adding a differentiating solution. This contains • 1 μmol/L of dexamethasone, • 0.5 mmol/L of 3-isobutyl-1-methylxanthine, • 1.67 μmol/L of insulin, and • 10% FBS.
Then the cells are stimulated for another 48 hours before finally being analysed (day 4).
RNA isolation, reverse transcription and quantification of gene expression are carried out using an ABI 7000 sequence detection system-for real time PCR (described in Janke et al, Diabetes 51:1699-707, 2002). The endogenous control used for the real time PCR consists of the household genes 18S rRNA and hypoxanthine guanine phosphoribosyl transferase (hprt).

[6] = Dissolution of active substances from tablets; format: physicochemical; settings: 900 ml 0.1 M phosphate buffer pH 7.5, 75 rpm

Structure (SMILES) | direct activation of the PPARgamma-LBD / recruiting of the LXXLL peptide [1] | SPA signal, bound 3H-rosiglitazone (MW) ([2]; 1.00E−04 M test substance) | SPA signal, bound 3H-rosiglitazone (MW) ([2]; 1.00E−05 M test substance) | SPA signal, bound 3H-rosiglitazone (MW) ([2]; 1.00E−06 M test substance) | SPA signal, bound 3H-rosiglitazone (MW) ([2]; 1.00E−07 M test substance) | SPA signal, bound 3H-rosiglitazone (MW) ([2]; 3.00E−05 M test substance) | SPA signal, bound 3H-rosiglitazone (MW) ([2]; 3.00E−06 M test substance) | SPA signal, bound 3H-rosiglitazone (MW) ([2]; 3.00E−07 M test substance) | luciferase activity (MW) ([3]; 1.00E−04 M) [RLU] | luciferase activity (MW) ([3]; 1.00E−05 M) [RLU] | luciferase activity (MW) ([3]; 1.00E−06 M) [RLU] | luciferase activity (MW) ([3]; 3.00E−05 M) [RLU] | luciferase activity (MW) ([3]; 3.00E−06 M) [RLU] | luciferase activity (MW) ([3]; 3.00E−07 M) [RLU] | insulin sensitivity [4] | stimulation of aP2 expression, factor [5] | dissolved after 30 minutes ([6]; first batch) [%] | dissolved after 30 minutes ([6]; second batch) [%] | dissolved after 30 minutes ([6]; third batch) [%]
CCCCC1=NC2(CCCC2)C(=O)N1Cc1ccc(-c2ccccc2-c2nnn[nH]2)cc1 [irbesartan] | does not result in any direct activation | 510 | 723 | 815 | 913 | 648 | 779 | 810 | 29600 | 3292 | 657 | 22133 | 1028 | 491 | Improvement to the insulin sensitivity | – | – | – | –
CCCCc1nc(Cl)c(CO)n1Cc1ccc(-c2ccccc2-c2nn[nH]n2)cc1 [losartan] | does not result in any direct activation | 611 | 787 | 901 | 915 | 784 | 814 | 835 | 11322 | 709 | 589 | 3271 | 672 | 874 | – | – | – | – | –
CCc1ccc(CCOc2ccc(CC3SC(=O)NC3=O)cc2)nc1 (stereo not drawn) [pioglitazone] | – | – | – | – | – | – | – | – | – | – | – | – | – | – | – | 4.5±1 | – | – | –
CCCc1nc2c(C)cc(-c3nc4ccccc4n3C)cc2n1Cc1ccc(-c2ccccc2C(=O)O)cc1 [telmisartan sodium salt] | – | – | – | – | – | – | – | – | – | – | – | – | – | – | – | – | 92±1.5 | 96±1.8 | 100±1.0
